Experiments:
[1] = target: T1, Recombinant N-terminal GST tag full-length human HDAC8 (Homo sapiens, UniProt Q9BY41); assay: HDAC8 probe binding assay, time resolved fluorescence (TRF); settings: fluorescein labeled pan-HDAC inhibitor probe, 16 hours incubation, compounds listed under IC50 range headings
T1 construct: Recombinant N-terminal GST tag full-length human HDAC8; purchased SignalChem H90-30G-1000; host or cells: Sf9 insect cells (baculovirus)
T1 sequence (Q9BY41 1-377): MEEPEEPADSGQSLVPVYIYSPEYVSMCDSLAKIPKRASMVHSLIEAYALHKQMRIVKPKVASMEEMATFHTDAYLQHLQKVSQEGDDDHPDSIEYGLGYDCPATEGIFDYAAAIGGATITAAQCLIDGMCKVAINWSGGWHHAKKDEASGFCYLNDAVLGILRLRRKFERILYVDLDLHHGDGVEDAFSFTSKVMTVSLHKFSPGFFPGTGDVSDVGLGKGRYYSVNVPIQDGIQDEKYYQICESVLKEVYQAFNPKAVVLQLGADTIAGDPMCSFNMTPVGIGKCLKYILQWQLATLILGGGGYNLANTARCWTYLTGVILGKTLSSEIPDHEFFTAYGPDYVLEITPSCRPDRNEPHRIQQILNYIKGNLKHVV
Outline: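 TR-FRET probe displacement using GST-tagged full-length human HDAC8 (Sf9-expressed, 2.5 nM) with 1.5 nM fluorescein-labelled pan-HDAC inhibitor probe and anti-GST terbium, in HEPES pH 7.5 buffer with GSH, BGG, Triton X-100. Compounds 25 μM–1.3 nM, 10-point; 16 h at room temperature. IC50 from 4-parameter fit of % inhibition versus no-enzyme and DMSO controls.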

[2] = target: T2, Full length human recombinant HDAC8 protein (Homo sapiens, UniProt Q9BY41); assay: In vitro histone deacetylase assay: enzymatic HDAC8 assay, electrophoretic mobility shift; format: biochemical; settings: substrate RHKK(Ac)-NH2, 1 nM enzyme, compounds listed under IC50 range headings
T2 construct: Full length human recombinant HDAC8 protein was expressed in baculoviral system; made in house
T2 sequence (Q9BY41 1-377): T1 sequence (Q9BY41 1-377)
Outline: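 Baculovirus-expressed full-length human HDAC8 (1 nM) deacetylated 2 µM fluorescent RHKK(Ac)-NH2 peptide in pH 7.5 HEPES, 1% DMSO, at 25 °C, with 12 compound concentrations at 3× spacing. SDS-quenched; product and substrate resolved by microfluidic electrophoresis, P/(S+P) converted to percent inhibition, and IC50 obtained by 4-parameter fit.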

SMILES | IC50 [1] [nM] | IC50 [2] [nM]
O=C(/C=C/c1ccccc1NC(=O)c1ccncc1N1CCOCC1)NO [Example I-313, (E)-N-(2-(3-(hydroxyamino)-3-oxoprop-1-en-1-yl)phenyl)-3-morpholinoisonicotinamide] | ≤ 1000 | < 1000
O=C(NO)/C(F)=C/c1ccccc1NC(=O)c1cccc(C(F)(F)F)c1 [Example I-324, (Z)—N-(2-(2-fluoro-3-(hydroxyamino)-3-oxoprop-1-en-1-yl)phenyl)-3-(trifluoromethyl)benzamide] | ≤ 1000 | < 1000
O=C(/C=C/c1ccccc1NC(=O)c1cnc(-c2cccnc2)s1)NO [Example I-76, (E)-N-(2-(3-(hydroxyamino)-3-oxoprop-1-en-1-yl)phenyl)-2-(pyridin-3-yl)thiazole-5-carboxamide] | ≤ 1000 | < 1000
CC(C)(C)OC(=O)N1CCCC12CCN(c1ccccc1/C=C/C(=O)NO)C2 (stereo not shown) [Example I-541, tert-butyl (E)-7-(2-(3-(hydroxyamino)-3-oxoprop-1-en-1-yl)phenyl)-1,7-diazaspiro[4.4]nonane-1-carboxylate] | ≤ 1000 | < 1000
Cc1ncsc1C(=O)N1CCN(c2ccccc2/C=C/C(=O)NO)CC1 [Example I-200, (E)-N-hydroxy-3-(2-(4-(4-methylthiazole-5-carbonyl)piperazin-1-yl)phenyl)acrylamide] | ≤ 1000 | < 1000
CC(=O)N1CC2(CCCN2c2ccccc2/C=C/C(=O)NO)C1 [Example I-547, (E)-3-(2-(2-acetyl-2,5-diazaspiro[3.4]octan-5-yl)phenyl)-N-hydroxyacrylamide] | ≤ 1000 | < 1000
CS(=O)(=O)c1nc(C(=O)Nc2ccccc2/C=C/C(=O)NO)c2ccccn12 [Example I-85, (E)-N-(2-(3-(hydroxyamino)-3-oxoprop-1-en-1-yl)phenyl)-3-(methylsulfonyl)imidazo[1,5-a]pyridine-1-carboxamide] | ≤ 1000 | < 1000
N#Cc1cccc(CNc2ccccc2/C=C/C(=O)NO)c1 [Example I-45, (E)-3-(2-((3-cyanobenzyl)amino)phenyl)-N-hydroxyacrylamide] | 1000 to 100000 | < 1000
O=C(/C=C/c1ccccc1NC(=O)[C@H]1C[C@@H]1c1ccccc1)NO [Example I-83, (1S,2S)-N-(2-((E)-3-(hydroxyamino)-3-oxoprop-1-en-1-yl)phenyl)-2-phenylcyclopropane-1-carboxamide] | ≤ 1000 | < 1000
O=C(/C=C/c1ccccc1NC(=O)c1nc(Oc2ccccc2)cs1)NO [Example I-544, N-{2-[(1E)-2-(hydroxycarbamoyl)eth-1-en-1-yl]phenyl}-4-phenoxy-1,3-thiazole-2-carboxamide] | ≤ 1000 | < 1000
O=C(/C=C/c1ccccc1NC(=O)c1ccc(-n2cccn2)cc1)NO [Example I-72, (E)-N-(2-(3-(hydroxyamino)-3-oxoprop-1-en-1-yl)phenyl)-4-(1H-pyrazol-1-yl)benzamide] | ≤ 1000 | < 1000
CC(C)(C)OC(=O)N1CCCCC12CCN(c1ccccc1/C=C/C(=O)NO)CC2 [Example I-538, tert-butyl (E)-9-(2-(3-(hydroxyamino)-3-oxoprop-1-en-1-yl)phenyl)-1,9-diazaspiro[5.5]undecane-1-carboxylate] | ≤ 1000 | < 1000
O=C(/C=C/c1ccccc1NC(=O)c1cnc(-c2ccccc2F)s1)NO [Example I-311, (E)-2-(2-fluorophenyl)-N-(2-(3-(hydroxyamino)-3-oxoprop-1-en-1-yl)phenyl)thiazole-5-carboxamide] | ≤ 1000 | < 1000
O=C(/C=C/c1ccccc1N1CCN(S(=O)(=O)c2ccccc2)CC1=O)NO [Example I-526, (E)-N-hydroxy-3-(2-(2-oxo-4-(phenylsulfonyl)piperazin-1-yl)phenyl)acrylamide] | ≤ 1000 | < 1000

— patent publication US10508077B2 (FORMA Therapeutics, Inc., priority 2015, dated 2019)
